Several values for one entry are separate records, joined by “and”; a condition that tells them apart may be missing. Equal values may be shown once.
Columns and labels:
MCF-7 breast cancer line = system: MCF-7 breast cancer line; set-up: method as in PMID 34808062; settings: cited from earlier work
HL-60 leukemia line = system: HL-60 leukemia line; set-up: method as in PMID 34808062; settings: cited from earlier work
[1] = system: panel of cancer cell lines of various origins; set-up: method as in PMID 12932133; settings: up to 10 μg/mL (approximately 60 μM for lepidiline A); cited from earlier work
[2] = system: Bone marrow MSCs (BM-MSC); assay: Cytotoxicity, range over bone marrow MSCs; format: cell-based; settings: BM-MSC and immortalized BM-MSC
Description: (§1) OVCAR-3 (OVC-3) and OVCAR-8 (OVC-8) ovarian serous adenocarcinomas, IGROV-1 ovarian endometrioid adenocarcinoma, OVCAR-5 (OVC-5) upper gastrointestinal carcinoma, MDA-MB-231 breast adenocarcinoma, and MCF-7 and T-47D invasive breast carcinomas were purchased from the Developmental Therapeutic Program of the National Cancer Institute (NIH, USA) and were cultured in an RPMI medium (Thermo Fisher). Mes-Sa and Mes-Sa/Dx5 uterine sarcoma cell lines were purchased from American Type Culture Collection (ATCC) and were kept in DMEM (Thermo Fisher). Mes-Sa B1 was transfected with the human MDR1 gene, and Mes-Sa mCherry, Mes-Sa B1 mOrange, and Mes-Sa/Dx5 eGFP were engineered to stably express the respective fluorescent proteins previously.[51] Culture media for cancer cells were supplemented with 10% fetal bovine serum, 2 mM L-glutamine, and 100 units/mL penicillin and 100 μg/mL streptomycin (Thermo Fisher). The adipose tissue and bone marrow-derived mesenchymal stem cells (AD-MSC and BM-MSC) were described previously[37] and were kept in DMEM-F12 (Gibco) supplemented with 10% fetal bovine serum, L-glutamine (Thermo Fisher), 0.1% gentamicin (Gibco, 50 mg/mL), and 16 ng/mL fibroblast growth factor 2 (Peprotech). Cells were kept at 37 °C under 5% CO2 and were negative for mycoplasma infection.
(§2) Cytotoxicities of the nonfluorescent cancer cells were assessed with a PrestoBlue cell viability reagent (Thermo Fisher). Briefly, 2500 cells/well were seeded on 384-well plates; then, the next-day drugs were added. After 72 h of incubation, PrestoBlue was added in a 10% final concentration, and after an hour of additional incubation, plates were measured with a PerkinElmer EnSpire plate reader at 555 nm/585 nm excitation/emission wavelengths. Stem cells were seeded on 96-well plates at a density of 5000 cells/well, and the following day, drugs were added for 96 h of incubation; then, viability was assessed with 10% PrestoBlue diluted in PBS. Fluorescent cancer cells were admixed before seeding on 384-well plates at an 800 cells/well density each, thus altogether 2400 cells/well. Drugs were added the following day, and the intensity of the fluorescent proteins was measured after 144 h of incubation at the respective fluorescent channels (excitation/emission, eGFP: 485 nm/510 nm; mCherry: 585 nm/610 nm; mOrange: 545 nm/567 nm). pIC50 values were calculated by a custom program written by Judit Sessler in C#. IC50 values and standard deviation were calculated from average pIC50 values from at least 3 independent measurements.

IGROV-1 = assay: Cytotoxicity (PrestoBlue), ovarian cancer line; format: cell-based; settings: IGROV-1, 72 h incubation
Description: as §1, §2

OVC-3 = assay: Cytotoxicity (PrestoBlue), ovarian cancer line; format: cell-based; settings: OVC-3, 72 h incubation
Description: as §1, §2

OVC-8 = assay: Cytotoxicity (PrestoBlue), ovarian cancer line; format: cell-based; settings: OVC-8, 72 h incubation
Description: as §1, §2

im. BM-MSC = assay: Cytotoxicity (PrestoBlue), immortalized bone marrow MSC; format: cell-based; settings: 96 h incubation
Description: as §1, §2

T-47D [3] = assay: H2DCFDA intracellular ROS production assay; format: cell-based; settings: 50 μM, 4 h incubation
Description: (§3) To assess intracellular ROS production, we used a H2DCFDA cellular ROS assay kit (ab113851, Abcam) according to the manufacturer’s instructions. Briefly, 20,000 cells were seeded on 96-well plates. On the following day, cells were washed, and H2DCFDA solution, prepared by avoiding direct light, was added for 45 min. Next, cells were washed, and 50 μM samples of test compounds were aspirated on the cells in a complete and phenol red-free medium (FluoroBrite, Thermo Fisher). At each hour, fluorescence of 2′,7′-dichlorofluorescein (DCF) was measured at 484 nm/535 nm excitation/emission wavelengths. Values were normalized to 0 h measurements. Values indicate at least 3 independent measurements.

Mes-Sa [4] = assay: H2DCFDA intracellular ROS production assay; format: cell-based; settings: 50 μM, 4 h incubation
Description: as §3

MCF-7 [5] = assay: H2DCFDA intracellular ROS production assay; format: cell-based; settings: MCF-7, 50 μM, 4 h incubation
Description: as §3

AD-MSC = assay: Cytotoxicity (PrestoBlue), adipose-derived mesenchymal stem cells; format: cell-based; settings: 96 h incubation
Description: as §1, §2

BM-MSC = assay: Cytotoxicity (PrestoBlue), bone marrow-derived mesenchymal stem cells; format: cell-based; settings: 96 h incubation
Description: as §1, §2

Mes-Sa/Dx5 = assay: Cytotoxicity, doxorubicin-selected MDR uterine sarcoma line; format: cell-based; settings: Mes-Sa/Dx5 (doxorubicin selected, ABCB1 expressing), fluorescent protein intensity after 144 h
Description: as §1, §2

Mes-Sa B1 = assay: Cytotoxicity, MDR1-transfected uterine sarcoma line; format: cell-based; settings: Mes-Sa B1 (MDR1 transfected, ABCB1 expressing), fluorescent protein intensity after 144 h
Description: as §1, §2

T-47D [6] = assay: Cytotoxicity (PrestoBlue), breast cancer line; format: cell-based; settings: 72 h incubation
Description: as §1, §2

MDA-MB-231 = assay: Cytotoxicity (PrestoBlue), breast cancer line; format: cell-based; settings: MDA-MB-231, 72 h incubation
Description: as §1, §2

MCF-7 [7] = assay: Cytotoxicity (PrestoBlue), breast cancer line; format: cell-based
Description: as §1, §2

OVC-5 = assay: Cytotoxicity (PrestoBlue), upper gastrointestinal cancer line; format: cell-based; settings: for IC50: OVC-5, 72 h incubation, PrestoBlue
Description: as §1, §2

Mes-Sa [8] = assay: Cytotoxicity, uterine sarcoma parental line; format: cell-based; settings: fluorescent protein intensity after 144 h
Description: as §1, §2

[9] = system: 3 ovarium cancer lines (IGROV-1, OVC-3, and OVC-8); assay: Cytotoxicity, range over 3 ovarium cancer lines; format: cell-based; settings: IGROV-1, OVC-3, OVC-8
Description: as §1, §2

[10] = Stability in serum-free culture medium by HPLC-UV; format: physicochemical; settings: for AUC (HPLC-UV), single measurements 1-5 / AUC (HPLC-UV), average: serum-free culture medium
Description: Stability of the metal complexes in solution was measured in serum-free culture medium. The compounds were dissolved in DMSO right before the experiment. Solutions of Cu-LA and Ag-LA contained 1% final volume of DMSO, while Au-LA contained 30% DMSO. Samples were taken right after dilution, and after 1 h, 2 h, 4 h, 8 h, 16 h, 32 and 48 h, and measured by HPLC-UV.

[11] = system: 3 breast cancer cell lines (MDA-MB-231, MCF-7 and T-47D); assay: Cytotoxicity, range over 3 breast cancer cell lines; format: cell-based; settings: MDA-MB-231, MCF-7, T-47D
Description: as §1, §2

MSCs = assay: Cytotoxicity, range over MSCs; format: cell-based; settings: AD-MSC, BM-MSC, immortalized BM-MSC
Description: as §1
(§4) Cytotoxicities of the nonfluorescent cancer cells were assessed with a PrestoBlue cell viability reagent (Thermo Fisher). Briefly, 2500 cells/well were seeded on 384-well plates; then, the next-day drugs were added. After 72 h of incubation, PrestoBlue was added in a 10% final concentration, and after an hour of additional incubation, plates were measured with a PerkinElmer EnSpire plate reader at 555 nm/585 nm excitation/emission wavelengths. Stem cells were seeded on 96-well plates at a density of 5000 cells/well, and the following day, drugs were added for 96 h of incubation; then, viability was assessed with 10% PrestoBlue diluted in PBS. […] IC50 values and standard deviation were calculated from average pIC50 values from at least 3 independent measurements.

cancer lines = assay: Cytotoxicity, range over cancer lines; format: cell-based; settings: all cancer lines tested; read-out: IC50 range over cancer lines
Description: as §1, §4

COc1cccc(C[n+]2cn(Cc3ccccc3)c(C)c2C)c1 [lepidiline C]
IC50 (MCF-7 breast cancer line): 75 µM
IC50 (HL-60 leukemia line): ~30 µM

Cc1c(C)[n+](Cc2ccccc2)c(C)n1Cc1ccccc1 [lepidiline B, reference compound]
Toxicity against a panel of cancer cell lines [1]: low or no toxicity
IC50 (HL-60 leukemia line): 3.8 µM

Cc1c(C)[n+](Cc2ccccc2)cn1Cc1ccccc1.[Cl-] [LA, 1,3-Dibenzyl-4,5-dimethyl-imidazol-1-ium-chloride]
IC50 ([2]; BMMSC): 48 to 98 µM
IC50 (IGROV-1; Homo sapiens): 59.9 µM
IC50 (OVC-3): 48.1 µM
IC50 (OVC-8): 57.2 µM
IC50 (im. BM-MSC; BMMSC): 47.6 µM
Intracellular ROS production compared to the medium (T-47D [3]): did not provoke extra ROS production
Intracellular ROS production compared to the medium (Mes-Sa [4]): did not provoke extra ROS production
Intracellular ROS production compared to the medium (MCF-7 [5]): did not provoke extra ROS production
IC50 (AD-MSC; listed as Lepidiline A): 184 µM
IC50 (AD-MSC; Mesenchymal stem cells, 96 h): 184 µM
IC50 (BM-MSC; BMMSC): 69.1 µM
IC50 (Mes-Sa/Dx5; Homo sapiens, MES-SA/Dx5, 144 h): > 200 µM
IC50 (Mes-Sa B1; Homo sapiens): > 200 µM
IC50 (T-47D [6]; Homo sapiens, T47D): 16.1 µM
IC50 (MDA-MB-231; Homo sapiens): 91.8 µM
IC50 (MCF-7 [7]; Homo sapiens, MCF7, MCF-7, 72 h incubation): 71.7 µM
Toxicity against a panel of cancer cell lines [1]: low or no toxicity
IC50 (HL-60 leukemia line): ~30 µM
IC50 (OVC-5): > 200 µM
Lower susceptibility of OVC-5 compared to the ovarian cancer lines (OVC-5; OVC-5 vs ovarian cancer lines): 4 fold
IC50 (Mes-Sa [8]; Homo sapiens): 27.8 µM
IC50 ([9]; Homo sapiens): 48.1 to 72.9 µM

Cc1c(C)n(Cc2ccccc2)[c](=[Au][Cl])n1Cc1ccccc1 [Au-LA, Chloro-(1,3-dibenzyl-4,5-dimethyl-imidazol-2-ylidene)gold]
IC50 [2]: 5.7 to 15.7 µM
IC50 (IGROV-1): 10.5 µM
IC50 (OVC-3): 16.6 µM
IC50 (OVC-8): 12.7 µM
IC50 (im. BM-MSC): 5.7 µM
More ROS compared to the medium (Mes-Sa [4]): ~50%
IC50 (AD-MSC): 5.69 µM
AUC (HPLC-UV), single measurements 1-5 ([10]; 0 h): 700 and 697 and 698
AUC (HPLC-UV), average ([10]; 0 h, Cu-LA, Ag-LA 1% DMSO, Au-LA 30% DMSO): 698
AUC (HPLC-UV), average ([10]; 1 h): 677
AUC (HPLC-UV), single measurements 1-5 ([10]; 1 h): 690 and 685 and 674 and 672 and 665
AUC (HPLC-UV), average ([10]; 2 h): 643
AUC (HPLC-UV), single measurements 1-5 ([10]; 2 h): 645 and 644 and 640 and 643
AUC (HPLC-UV), average ([10]; 4 h): 606
AUC (HPLC-UV), single measurements 1-5 ([10]; 4 h): 614 and 605 and 604 and 603
AUC (HPLC-UV), average ([10]; 8 h): 456
AUC (HPLC-UV), single measurements 1-5 ([10]; 8 h): 463 and 457 and 456 and 454 and 451
AUC (HPLC-UV), average ([10]; 16 h): 351
AUC (HPLC-UV), single measurements 1-5 ([10]; 16 h): 354 and 351 and 353 and 350 and 345
AUC (HPLC-UV), average ([10]; 32 h): 177
AUC (HPLC-UV), single measurements 1-5 ([10]; 32 h): 180 and 173 and 174 and 172 and 187
AUC (HPLC-UV), average ([10]; 48 h): 141
AUC (HPLC-UV), single measurements 1-5 ([10]; 48 h): 142 and 143 and 140 and 135
Stability in serum-free culture medium ([10]; HPLC-UV, observed 48 h): decreased after 4 h
IC50 (BM-MSC): 7.54 µM
IC50 (Mes-Sa/Dx5): 13.4 µM
IC50 (Mes-Sa B1): 12.8 µM
IC50 (T-47D [6]): 7.71 µM
IC50 (MDA-MB-231): 9.58 µM
IC50 (MCF-7 [7]; MCF-7, 72 h incubation): 9.49 µM
IC50 [11]: 5.8 to 12 µM
IC50 (MSCs): 5.7 to 7.5 µM
IC50 (OVC-5): 24.8 µM
IC50 (Mes-Sa [8]): 9.09 µM
IC50 (cancer lines): 7.7 to 24.8 µM
IC50 [9]: 10.5 to 17.4 µM
